Source: patent US8492391B2, “Substituted 6-(2-hydroxybenzylamino)purine derivatives, their use as medicaments and compositions containing these derivatives” (Univerzita Palackeho V Olomouci, priority 2009, dated 2013)

How the values were obtained:
CDK9/cyclin T = biological target: T1, CDK9/cyclin T (Homo sapiens, UniProt P50750); experiment: CDK9/cyclin T kinase inhibition assay; type: biochemical; settings: kinase inhibitory activity, 15 μM ATP, (YSPTSPS)3 peptide substrate
T1 construct: made in house; host or cells: Sf9 insect cells, baculovirus co-infection

[1] = test system: MCF7 (human breast adenocarcinoma); experiment: Calcein AM cytotoxicity assay, MCF7; type: cell-based
[2] = test system: K562 (human chronic myelogenous leukaemia); experiment: Calcein AM cytotoxicity assay, K562; type: cell-based; settings: Homo sapiens, read-out: Cytotoxic activity IC50 (μM) K562
[3] = test system: HOS (human osteogenic sarcoma); experiment: Calcein AM cytotoxicity assay, HOS; type: cell-based; settings: Homo sapiens, read-out: Cytotoxic activity IC50 (μM) HOS
p53 in RPMI-8226 cells = experiment: Immunoblotting in RPMI-8226 cells with temperature-sensitive p53 (E285K) at permissive and restrictive temperature; type: cell-based, human
Experimental: For immunoblotting, cell were detached with rubber policeman and washed three times with ice-cold PBS and lysed in buffer (50 mM Tris, pH 7.4, 250 mM NaCl, 5 mM EDTA, 50 mM NaF, 1 mM Na3VO4, 1% Nonidet P40) containing mixture of protease and phosphatase inhibitors (Sigma-Aldrich, USA). 20 μg of total proteins were separated by SDS-polyacrylamide gel electrophoresis (SDS-PAGE) and transferred onto nitrocellulose membranes. Membranes were blocked in 5% milk and 0.1% Tween 20 in PBS and probed overnight with specific monoclonal antibodies or rabbit polyclonal sera. […] All primary antibodies were diluted in PBS containing 5% powdered milk; 0.1% Tween 20. Peroxidase conjugated rabbit anti-mouse immunoglobulin or porcine anti-rabbit immunoglobulin antisera (DAKO, Denmark) were used as the secondary antibodies and visualised with ECL reagents (Amersham-Pharmacia, Little Chalfont, UK).
Then, we also determined effect of the compounds on the cell lines expressing some temperature-sensitive mutants of p53. For example, in BT474 and RPMI-8226 cells bearing temperature-sensitive mutant of p53 (E285K), p53 protein switches between mutant and wild-type conformation in a temperature-dependent manner. At restrictive (37° C.) temperature mutated p53 protein is expressed, while after shift to a permissive (30° C.) temperature p53 is folded correctly and functional. To analyze the functional involvement of p53 in the efficiency of the treatment with the compounds, we cultivated RPMI-8226 cells independently at two different temperatures (restrictive or permissive), and exposed them to increasing doses of selected compounds. The cell lysates were prepared and the levels of cell cycle regulators were analysed by immunoblotting.

P388D1 leukemia = experiment: Survival model of P388D1 leukemia transplanted intraperitoneally; type: in vivo, DBA-2 mice; settings: 250 mg/kg orally twice daily, Days 1-3 and 7-9
Experimental: Screening of biological activity of compound 128 was performed on survival model of P388D1 leukemia transplanted intraperitoneally with 2.10^5 cells. DBA-2 mice were used as a host. One day following the leukemia transplantation, treatment with 128 was initiated. The drug was given orally by gastric gavages in total volume of 200 μl/dose twice daily at dose 250 mg/kg in two chemotherapy cycles (Days 1-3 and 7-9). The compound 128 was solubilized in 5% N-methyl-2-pyrollidine, 30% polyethylene glycol 400, 65% tartar buffer (pH 3.0). Survival analysis of treated animals (10 mice/group) was preformed in comparison with vehicle treated mice using Kaplan-Meier method and the significance was evaluated by the log-rank test. Body weight of experimental animals was evaluated in parallel in order to reflect toxicity and efficacy of therapy. Comparative analysis of body weight was performed using non-parametric t-test.

T1 sequence (P50750 whole entry, species assumed): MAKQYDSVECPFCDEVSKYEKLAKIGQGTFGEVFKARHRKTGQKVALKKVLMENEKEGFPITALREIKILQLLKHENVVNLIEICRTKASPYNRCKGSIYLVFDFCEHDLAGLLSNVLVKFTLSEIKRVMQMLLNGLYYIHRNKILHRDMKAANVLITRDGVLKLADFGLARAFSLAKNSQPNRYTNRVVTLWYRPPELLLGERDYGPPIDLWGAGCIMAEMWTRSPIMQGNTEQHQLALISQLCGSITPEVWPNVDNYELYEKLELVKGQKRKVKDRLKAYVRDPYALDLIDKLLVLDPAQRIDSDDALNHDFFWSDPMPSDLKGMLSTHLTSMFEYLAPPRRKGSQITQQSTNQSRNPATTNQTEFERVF
T1 sequence (O60563 whole entry partner, species assumed): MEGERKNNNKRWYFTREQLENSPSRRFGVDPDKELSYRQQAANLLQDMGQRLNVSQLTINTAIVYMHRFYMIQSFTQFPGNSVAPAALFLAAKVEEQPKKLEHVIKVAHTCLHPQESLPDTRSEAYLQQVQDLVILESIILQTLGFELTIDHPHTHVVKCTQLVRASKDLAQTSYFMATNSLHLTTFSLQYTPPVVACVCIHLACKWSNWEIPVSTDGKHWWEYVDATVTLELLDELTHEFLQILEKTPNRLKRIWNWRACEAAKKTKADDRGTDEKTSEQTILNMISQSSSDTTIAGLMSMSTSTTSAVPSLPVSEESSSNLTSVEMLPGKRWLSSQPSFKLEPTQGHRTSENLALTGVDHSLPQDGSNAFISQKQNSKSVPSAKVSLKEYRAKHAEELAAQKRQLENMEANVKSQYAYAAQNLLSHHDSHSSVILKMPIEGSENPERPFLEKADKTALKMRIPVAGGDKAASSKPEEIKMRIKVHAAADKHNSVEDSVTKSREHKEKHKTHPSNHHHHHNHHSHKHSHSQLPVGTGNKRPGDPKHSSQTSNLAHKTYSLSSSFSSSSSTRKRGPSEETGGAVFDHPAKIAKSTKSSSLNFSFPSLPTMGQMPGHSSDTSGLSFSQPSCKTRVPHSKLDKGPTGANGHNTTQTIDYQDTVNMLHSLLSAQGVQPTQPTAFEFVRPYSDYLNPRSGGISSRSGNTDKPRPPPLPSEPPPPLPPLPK

CCC(CO)Nc1nc(NCc2cccc(OC)c2O)c2ncn(C(C)C)c2n1 (racemic) [Compound 128, (RS)-2-({6-[(2-hydroxy-3-methoxybenzyl)amino]-9-isopropyl-9-H-purin-2-yl}amino)butan-1-ol]
IC50 (CDK9/cyclin T): 0.04 µM
IC50 ([1]; Homo sapiens, MCF7, read-out: Cytotoxic activity IC50 (μM) MCF7): 5 µM
number of viable cells (antiproliferative activity) ([1]; MCF7, 72 h): significantly reduces the number of living cells
IC50 [2]: 15.5 µM
IC50 [3]: 5.9 µM
drug concentration causing fragmentation of PARP-1, permissive versus restrictive temperature (p53 in RPMI-8226 cells; RPMI-8226 cells): about two-fold lower drug concentrations
level of wild-type p53 protein (p53 in RPMI-8226 cells; RPMI-8226 cells at permissive (30° C.) temperature): caused accumulation of wild-type p53 protein
level of mutant p53 (p53 in RPMI-8226 cells; RPMI-8226 cells at restrictive (37° C.) temperature): did not change the levels of mutant p53
expression of anti-apoptotic protein Mcl-1 (p53 in RPMI-8226 cells; RPMI-8226 cells, 30° C. versus restrictive temperature): suppressed more efficiently at 30 °C
body weight of treated animals (P388D1 leukemia): reducing body weight of treated animals
mean survival time (P388D1 leukemia): 27.4 days
survival (Kaplan-Meier, log-rank test) (P388D1 leukemia; vs vehicle, P=0.0427): significantly better survival
